The structures appear in SMILES notation. Where only a bound is given, the exact number is not on record here.

The target of experiment [1] is PKMYT1 (MYT1) (Homo sapiens (Human), UniProt Q99640). As to the kind of experiment: PKMYT1 HTRF Assay. Format: binding. The note with it: Tracer 178, GST-Tb; compound 10 μM to 0.5 nM. How it is done: Example A: PKMYT1 HTRF Assay
(§1) Compound serial dilution is performed by Echo, and the final concentrations vary from 10 μM to 0.5 nM. This was filled by the addition of 5 μL/well of Enzyme solution to the assay plate containing the compound. The plate was centrifuged at 1000 rpm for 1 minute, and incubate 15 minutes at 25° C. Then 5 μL/well of tracer solution (Tracer 178) was added to initiate the reaction, and incubate for 60 minutes at 25° C. Next 5 μL GST-Tb was added into the assay plate, the plate was centrifuged at 1000 rpm for 1 minute, and incubate for 15 minutes at 25° C. The assay plate was read on Envision.

In experiment [2] the target is WEE1 (Homo sapiens (Human), UniProt P30291). Put plainly: WEE1 ADP-Glo Assay. The settings on record: compound 10 μM to 0.5 nM. The format is biochemical. How it is done:
Example B: WEE1 ADP-Glo Assay
as §1, with “of substrate” for “of tracer”, “solution” for “solution (Tracer 178)”, “Next 10” for “Next 5”, “μL kinase detection reagent” for “μL GST-Tb”, “for 60” for “for 15”, “on Envision for US LUM as RLU.” for “on Envision.”

Chain of PKMYT1 (MYT1) (Q99640 whole entry): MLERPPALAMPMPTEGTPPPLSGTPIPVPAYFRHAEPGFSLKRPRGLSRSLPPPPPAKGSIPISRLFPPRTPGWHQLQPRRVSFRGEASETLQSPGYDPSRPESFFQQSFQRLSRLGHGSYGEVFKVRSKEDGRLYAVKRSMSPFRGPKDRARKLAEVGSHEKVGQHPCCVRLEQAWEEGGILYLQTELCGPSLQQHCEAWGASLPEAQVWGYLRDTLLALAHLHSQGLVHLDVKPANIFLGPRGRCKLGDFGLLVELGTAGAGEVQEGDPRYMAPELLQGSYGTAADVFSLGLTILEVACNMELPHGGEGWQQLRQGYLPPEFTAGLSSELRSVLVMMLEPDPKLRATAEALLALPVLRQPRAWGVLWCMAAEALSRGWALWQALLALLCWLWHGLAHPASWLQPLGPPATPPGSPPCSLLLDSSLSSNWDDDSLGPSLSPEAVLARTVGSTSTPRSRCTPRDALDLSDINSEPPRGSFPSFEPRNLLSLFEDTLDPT
Chain of WEE1 (P30291 whole entry): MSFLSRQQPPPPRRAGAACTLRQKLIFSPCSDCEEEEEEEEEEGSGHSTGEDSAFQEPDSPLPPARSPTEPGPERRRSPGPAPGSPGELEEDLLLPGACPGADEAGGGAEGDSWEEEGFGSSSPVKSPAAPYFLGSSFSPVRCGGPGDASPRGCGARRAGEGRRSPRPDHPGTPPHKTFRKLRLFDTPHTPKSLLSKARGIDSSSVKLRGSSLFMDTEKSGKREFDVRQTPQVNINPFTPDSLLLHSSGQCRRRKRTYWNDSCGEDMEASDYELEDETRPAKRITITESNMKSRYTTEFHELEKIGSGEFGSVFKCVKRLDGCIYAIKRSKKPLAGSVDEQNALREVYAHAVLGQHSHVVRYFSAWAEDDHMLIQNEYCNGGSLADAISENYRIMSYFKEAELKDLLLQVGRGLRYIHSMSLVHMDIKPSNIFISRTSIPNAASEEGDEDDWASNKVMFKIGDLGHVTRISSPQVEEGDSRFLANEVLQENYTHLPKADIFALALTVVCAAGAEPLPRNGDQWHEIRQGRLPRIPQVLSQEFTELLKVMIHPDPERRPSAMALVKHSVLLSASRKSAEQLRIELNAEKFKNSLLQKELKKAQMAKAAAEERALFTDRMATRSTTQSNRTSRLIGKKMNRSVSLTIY

For `Cc1ccc(O)c(C)c1-n1c(N)c2c3c(c(C)cnc31)CCNC2=O` [Example 1, 1-amino-2-(3-hydroxy-2,6-dimethylphenyl)-5-methyl-2,6,7,8-tetrahydro-9H-2,3,8-triazabenzo[cd]azulen-9-one], the figures for the IC50 in experiment [1] and in experiment [2] were below 10 nM and 1210 nM, respectively. In the same order, the values of `Cc1ccc(O)c(C)c1-n1c(N)c2c3c(c(C)ncc31)CCNC2=O` [Example 2, 1-amino-2-(3-hydroxy-2,6-dimethylphenyl)-5-methyl-2,6,7,8-tetrahydro-9H-2,4,8-triazabenzo[cd]azulen-9-one] are 10 to 50 nM and above 10000 nM. Compound `Cc1nc2c3c(c(N)n(-c4c(C)ccc(O)c4C)c3n1)C(=O)NCC2` [Example 3, 1-amino-2-(3-hydroxy-2,6-dimethylphenyl)-4-methyl-2,6,7,8-tetrahydro-9H-2,3,5,8-tetraazabenzo[cd]azulen-9-one] showed an IC50 in experiment [1] below 10 nM.

The values are drawn from patent US20250145624A1, “MEMBRANE-ASSOCIATED TYROSINE- AND THREONINE-SPECIFIC CDC2-INHIBITORY KINASE (PKMYT1) INHIBITORS AND USES THEREOF” (Insilico Medicine IP Limited, priority 2022, published 2025).
